Source: US20240109917A1 (ACTELION PHARMACEUTICALS LTD, priority 2020, published 2024)

Assays:
[1] = biological target: His6-TEV-PDGFRβ (557-1016) (Homo sapiens (Human), UniProt P09619); test: PDGFRβ HTRF Assay; format: biochemical; conditions: read-out: PDGFR HTRF IC50
Method in brief: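 HTRF KinEASE-TK readout (665/620 nm ratio) of TK-biotin substrate phosphorylation by His-tagged PDGFRβ kinase domain. Enzyme and inhibitor preincubated 30 min, then ATP/substrate added for 3 h at room temperature before 60 min EDTA quench/detection.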

[2] = biological target: VEGFR2, unphosphorylated (Homo sapiens (Human), UniProt P35968); test: VEGFR ADP GLO Assay; format: biochemical
VEGFR2, unphosphorylated, sequence (P35968 20-1356): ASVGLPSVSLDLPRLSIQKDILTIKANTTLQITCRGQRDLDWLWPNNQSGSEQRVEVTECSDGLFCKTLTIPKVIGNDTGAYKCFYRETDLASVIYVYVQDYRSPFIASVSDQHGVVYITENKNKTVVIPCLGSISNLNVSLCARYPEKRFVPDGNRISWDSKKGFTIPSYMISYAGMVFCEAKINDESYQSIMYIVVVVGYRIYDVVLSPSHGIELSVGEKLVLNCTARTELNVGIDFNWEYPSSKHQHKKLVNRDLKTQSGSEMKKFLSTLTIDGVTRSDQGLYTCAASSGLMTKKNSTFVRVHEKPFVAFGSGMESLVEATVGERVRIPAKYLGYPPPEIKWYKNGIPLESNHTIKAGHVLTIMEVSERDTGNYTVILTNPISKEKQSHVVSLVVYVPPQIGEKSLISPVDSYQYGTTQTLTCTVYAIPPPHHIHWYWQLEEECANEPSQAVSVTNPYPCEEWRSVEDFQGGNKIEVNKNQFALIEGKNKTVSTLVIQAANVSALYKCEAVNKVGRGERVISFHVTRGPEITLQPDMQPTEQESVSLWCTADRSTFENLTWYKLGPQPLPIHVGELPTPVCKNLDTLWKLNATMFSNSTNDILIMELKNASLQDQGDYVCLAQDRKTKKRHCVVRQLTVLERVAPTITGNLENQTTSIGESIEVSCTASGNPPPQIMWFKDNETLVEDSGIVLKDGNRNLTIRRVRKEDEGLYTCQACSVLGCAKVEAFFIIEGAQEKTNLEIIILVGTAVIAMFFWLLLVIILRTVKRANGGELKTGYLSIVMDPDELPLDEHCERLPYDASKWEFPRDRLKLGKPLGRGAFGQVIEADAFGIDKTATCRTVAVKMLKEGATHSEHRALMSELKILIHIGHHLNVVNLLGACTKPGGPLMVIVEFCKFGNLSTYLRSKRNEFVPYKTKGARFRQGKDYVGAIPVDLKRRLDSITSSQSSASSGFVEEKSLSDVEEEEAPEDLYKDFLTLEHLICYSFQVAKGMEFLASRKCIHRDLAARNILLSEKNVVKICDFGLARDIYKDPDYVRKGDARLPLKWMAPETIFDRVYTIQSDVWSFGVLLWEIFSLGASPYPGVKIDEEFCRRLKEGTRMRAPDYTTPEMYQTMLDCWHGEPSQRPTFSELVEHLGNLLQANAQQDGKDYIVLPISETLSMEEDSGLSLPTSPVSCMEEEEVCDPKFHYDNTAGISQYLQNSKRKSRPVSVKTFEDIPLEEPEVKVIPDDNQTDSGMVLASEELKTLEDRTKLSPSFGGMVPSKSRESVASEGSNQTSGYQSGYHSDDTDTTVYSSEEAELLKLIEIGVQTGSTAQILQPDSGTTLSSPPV

His6-TEV-PDGFRβ (557-1016), sequence (P09619 557-1016): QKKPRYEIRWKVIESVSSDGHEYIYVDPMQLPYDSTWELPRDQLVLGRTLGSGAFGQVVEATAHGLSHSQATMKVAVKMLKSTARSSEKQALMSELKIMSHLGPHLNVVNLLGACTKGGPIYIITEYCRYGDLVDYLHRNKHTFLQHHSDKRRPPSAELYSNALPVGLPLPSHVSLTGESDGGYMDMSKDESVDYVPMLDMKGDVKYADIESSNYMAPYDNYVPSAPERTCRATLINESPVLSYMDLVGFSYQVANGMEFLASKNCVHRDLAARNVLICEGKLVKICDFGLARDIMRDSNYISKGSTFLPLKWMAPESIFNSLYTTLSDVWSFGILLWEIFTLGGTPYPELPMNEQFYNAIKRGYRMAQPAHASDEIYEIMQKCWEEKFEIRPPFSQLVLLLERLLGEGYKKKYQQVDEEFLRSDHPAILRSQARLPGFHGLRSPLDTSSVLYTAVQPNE

Compound	IC50 [1] [nM]	IC50 [2] [nM]
Cc1ncc(C(=O)NCCN2CCCC2(C)C)cc1NC(=O)c1cnn2cc(-n3ncc4cccnc43)sc12 [Example 217, N-(5-((2-(2,2-dimethylpyrrolidin-1-yl)ethyl)carbamoyl)-2-methylpyridin-3-yl)-2-(1H-pyrazolo[3,4-b]pyridin-1-yl)pyrazolo[5,1-b]thiazole-7-carboxamide]	0.4	> 7500
COc1ncccc1-c1cn2ncc(C(=O)Nc3cc(C(=O)NCCN4CCC[C@H]4C)cnc3C)c2s1 [Example 242, (R)-2-(2-methoxypyridin-3-yl)-N-(2-methyl-5-((2-(2-methylpyrrolidin-1-yl)ethyl)carbamoyl)pyridin-3-yl)pyrazolo[5,1-b]thiazole-7-carboxamide]	0.2	> 7500
Cc1ncc(C(=O)NC2CN(C(C)(C)C)C2)cc1NC(=O)c1cnn2cc(-c3cccc4c3cnn4C)sc12 [Example 238, N-(5-((1-(tert-butyl)azetidin-3-yl)carbamoyl)-2-methylpyridin-3-yl)-2-(1-methyl-1H-indazol-4-yl)pyrazolo[5,1-b]thiazole-7-carboxamide]	0.4	> 2500
Cc1ncc(C(=O)NCCN2CCCC23CCC3)cc1NC(=O)c1cnn2cc(-c3cn(C)nc3C)sc12 [Example 213, N-(5-((2-(5-azaspiro[3.4]octan-5-yl)ethyl)carbamoyl)-2-methylpyridin-3-yl)-2-(1,3-dimethyl-1H-pyrazol-4-yl)pyrazolo[5,1-b]thiazole-7-carboxamide]	0.3	> 7500
Cc1cc(C(=O)NCCN2CCC(O)CC2)sc1NC(=O)c1cnn2cc(-c3cnn(C)c3)sc12 [Example 191, N-(5-((2-(4-hydroxypiperidin-1-yl)ethyl)carbamoyl)-3-methylthiophen-2-yl)-2-(1-methyl-1H-pyrazol-4-yl)pyrazolo[5,1-b]thiazole-7-carboxamide]	248	> 7500
Cc1cc(C(=O)NCCN2CCC(C)(C)C2)sc1NC(=O)c1cnn2cc(-c3cnn(C)c3)sc12 [Example 189, N-(5-((2-(3,3-dimethylpyrrolidin-1-yl)ethyl)carbamoyl)-3-methylthiophen-2-yl)-2-(1-methyl-1H-pyrazol-4-yl)pyrazolo[5,1-b]thiazole-7-carboxamide]	7.3	> 7500
Cc1ncc(C(=O)NCCN2CCCC2)cc1NC(=O)c1cnn2cc(-c3cnn(CC(O)CO)c3)sc12 (stereo not shown) [Example 225, 2-(1-(2,3-Dihydroxypropyl)-1H-pyrazol-4-yl)-N-(2-methyl-5-((2-(pyrrolidin-1-yl)ethyl)carbamoyl)pyridin-3-yl)pyrazolo[5,1-b]thiazole-7-carboxamide]	0.6	> 7500
Cc1cc(C(=O)NCCN2CCCC2(C)C)sc1NC(=O)c1cnn2cc(-c3cnn(C)n3)sc12 [Example 186, N-(5-((2-(2,2-dimethylpyrrolidin-1-yl)ethyl)carbamoyl)-3-methylthiophen-2-yl)-2-(2-methyl-2H-1,2,3-triazol-4-yl)pyrazolo[5,1-b]thiazole-7-carboxamide]	41.4	> 7500
Cc1ncc(NC(=O)OC[C@H]2CCCN2C)cc1NC(=O)c1cnn2cc(-c3cnn(C)c3)sc12 [Example 244, (R)-(1-methylpyrrolidin-2-yl)methyl (6-methyl-5-(2-(1-methyl-1H-pyrazol-4-yl)pyrazolo[5,1-b]thiazole-7-carboxamido)pyridin-3-yl)carbamate]	0.5	> 7500
Cc1ncc(NC(=O)OC2CN(C(C)(C)C)C2)cc1NC(=O)c1cnn2cc(-c3cnn(C)c3)sc12 [Example 252, 1-(tert-butyl)azetidin-3-yl (6-methyl-5-(2-(1-methyl-1H-pyrazol-4-yl)pyrazolo[5,1-b]thiazole-7-carboxamido)pyridin-3-yl)carbamate]	1.1	> 7500
Cn1cc(-c2cn3ncc(C(=O)Nc4sc(C(=O)NCCN5CCCC56CCC6)cc4C#N)c3s2)cn1 [Example 206, N-(5-((2-(5-azaspiro[3.4]octan-5-yl)ethyl)carbamoyl)-3-cyanothiophen-2-yl)-2-(1-methyl-1H-pyrazol-4-yl)pyrazolo[5,1-b]thiazole-7-carboxamide]	3550	> 2500
Cc1cc(C(=O)NCCN2CCCC2(C)C)sc1NC(=O)c1cnn2cc(-c3ccncc3)sc12 [Example 187, N-(5-((2-(2,2-dimethylpyrrolidin-1-yl)ethyl)carbamoyl)-3-methylthiophen-2-yl)-2-(pyridin-4-yl)pyrazolo[5,1-b]thiazole-7-carboxamide]	27.7	> 7500
COc1ncccc1-c1cn2ncc(C(=O)Nc3cc(NC(=O)CN4CCCC4(C)C)cnc3C)c2s1 [Example 233, N-(5-(2-(2,2-dimethylpyrrolidin-1-yl)acetamido)-2-methylpyridin-3-yl)-2-(2-methoxypyridin-3-yl)pyrazolo[5,1-b]thiazole-7-carboxamide]	0.2	> 7500
Cc1ncc(NC(=O)CN2CCCC2(C)C)cc1NC(=O)c1cnn2cc(-c3cnn(C)c3)sc12 [Example 13, N-(5-(2-(2,2-dimethylpyrrolidin-1-yl)acetamido)-2-methylpyridin-3-yl)-2-(1-methyl-1H-pyrazol-4-yl)pyrazolo[5,1-b]thiazole-7-carboxamide]	0.5	> 7500
Cc1ncc(C(=O)NCCN2CCCC2)cc1NC(=O)c1cnn2cc(-c3c(C)nn(C)c3C)sc12 [Example 223, N-(2-methyl-5-((2-(pyrrolidin-1-yl)ethyl)carbamoyl)pyridin-3-yl)-2-(1,3,5-trimethyl-1H-pyrazol-4-yl)pyrazolo[5,1-b]thiazole-7-carboxamide]	0.6	> 833
Cc1cc(C(=O)NCCN2[C@H](C)CCC[C@@H]2C)sc1NC(=O)c1cnn2cc(-c3cnn(C)c3)sc12 [Example 198, N-(5-((2-((2S,6R)-2,6-dimethylpiperidin-1-yl)ethyl)carbamoyl)-3-methylthiophen-2-yl)-2-(1-methyl-1H-pyrazol-4-yl)pyrazolo[5,1-b]thiazole-7-carboxamide]	2	> 7500
Cc1cc(C(=O)NCCN(C)C2CCCC2)sc1NC(=O)c1cnn2cc(-c3cnn(C)c3)sc12 [Example 190, N-(5-((2-(cyclopentyl(methyl)amino)ethyl)carbamoyl)-3-methylthiophen-2-yl)-2-(1-methyl-1H-pyrazol-4-yl)pyrazolo[5,1-b]thiazole-7-carboxamide]	6	> 7500
CCc1cc(C(=O)NCCN2CCCC23CCC3)sc1NC(=O)c1cnn2cc(-c3cnn(C)c3)sc12 [Example 205, N-(5-((2-(5-azaspiro[3.4]octan-5-yl)ethyl)carbamoyl)-3-ethylthiophen-2-yl)-2-(1-methyl-1H-pyrazol-4-yl)pyrazolo[5,1-b]thiazole-7-carboxamide]	39.4	> 7500
Cc1cc(C(=O)NCCN2CCCC(O)C2)sc1NC(=O)c1cnn2cc(-c3cnn(C)c3)sc12 (stereo not shown) [Example 200, N-(5-((2-(3-hydroxypiperidin-1-yl)ethyl)carbamoyl)-3-methylthiophen-2-yl)-2-(1-methyl-1H-pyrazol-4-yl)pyrazolo[5,1-b]thiazole-7-carboxamide]	49	> 7500
Cc1ncc(NC(=O)CCCN2CCC23CCC3)cc1NC(=O)c1cnn2cc(-c3cnn(C)c3)sc12 [Example 215, N-(5-(4-(1-azaspiro[3.3]heptan-1-yl)butanamido)-2-methylpyridin-3-yl)-2-(1-methyl-1H-pyrazol-4-yl)pyrazolo[5,1-b]thiazole-7-carboxamide]	0.5	> 7500
Cc1cc(C(=O)NCCN2CCCC2(C)C)sc1NC(=O)c1cnn2cc(-c3ccc(N)nc3)sc12 [Example 184, 2-(6-aminopyridin-3-yl)-N-(5-((2-(2,2-dimethylpyrrolidin-1-yl)ethyl)carbamoyl)-3-methylthiophen-2-yl)pyrazolo[5,1-b]thiazole-7-carboxamide]	15.9	> 7500
Cc1cc(C(=O)NCCN2CCC(CO)CC2)sc1NC(=O)c1cnn2cc(-c3cnn(C)c3)sc12 [Example 193, N-(5-((2-(4-(hydroxymethyl)piperidin-1-yl)ethyl)carbamoyl)-3-methylthiophen-2-yl)-2-(1-methyl-1H-pyrazol-4-yl)pyrazolo[5,1-b]thiazole-7-carboxamide]	321	> 7500
Cc1ncc(C(=O)NCCNCCO)cc1NC(=O)c1cnn2cc(-c3cnn(C)c3)sc12 [Example 234, N-(5-((2-((2-hydroxyethyl)amino)ethyl)carbamoyl)-2-methylpyridin-3-yl)-2-(1-methyl-1H-pyrazol-4-yl)pyrazolo[5,1-b]thiazole-7-carboxamide]	4.6	> 7500
Cc1ncc(C(=O)NCCN2CCCC2)cc1NC(=O)c1cnn2cc(-c3cnn(C)c3)sc12 [Example 219, 2-(1-Methyl-1H-pyrazol-4-yl)-N-(2-methyl-5-((2-(pyrrolidin-1-yl)ethyl)carbamoyl)pyridin-3-yl)pyrazolo[5,1-b]thiazole-7-carboxamide]	0.4	> 7500
Cc1cc(C(=O)NCCN2CC[C@@H](O)C2)sc1NC(=O)c1cnn2cc(-c3cnn(C)c3)sc12 [Example 194, (R)—N-(5-((2-(3-hydroxypyrrolidin-1-yl)ethyl)carbamoyl)-3-methylthiophen-2-yl)-2-(1-methyl-1H-pyrazol-4-yl)pyrazolo[5,1-b]thiazole-7-carboxamide]	147	2040
Cc1cc(C(=O)NCCN2CCCC2(C)C)sc1NC(=O)c1cnn2cc(-c3ccn(C)n3)sc12 [Example 188, N-(5-((2-(2,2-dimethylpyrrolidin-1-yl)ethyl)carbamoyl)-3-methylthiophen-2-yl)-2-(1-methyl-1H-pyrazol-3-yl)pyrazolo[5,1-b]thiazole-7-carboxamide]	9.5	> 7500
